# Test results as given in ChEMBL document CHEMBL1157294, “Rautandiols A and B, pterocarpans and cytotoxic constituents from Neorautanenia mitis” (J Nat Prod, 2006).
# How the values were obtained:
# [1] = tested on: A549; experiment: Cytotoxicity against human A549 cells after 3 days by SRB assay; assay type: functional, cell-based; conditions: A549, 72 h
# [2] = tested on: MCF7; experiment: Cytotoxicity against human MCF7 cells after 3 days by SRB assay; assay type: functional, cell-based; conditions: MCF7, 72 h
Structure (SMILES),IC50 [1] [µg/mL],IC50 [2] [µg/mL]
CC(C)(O)C1Cc2cc3c(cc2O1)OC[C@H]1c2ccc(O)cc2O[C@@H]31 (some centres undefined) [RAUTANDIOL B],> 5,> 5
C=C(C)[C@H]1Cc2c(ccc3c(=O)c4c(oc23)COc2cc(OC)c(OC)cc2-4)O1 [DEHYDROROTENONE],> 5,> 5
COc1cc2c(cc1-c1cc3cc4ccoc4cc3oc1=O)OCO2 [PACHYRRIZINE],> 5,3.6
C=C(C)[C@H]1Cc2c(ccc3c2O[C@@H]2COc4cc(OC)c(OC)cc4[C@@H]2C3=O)O1 [ROTENONE],0.04,0.008
CC1(C)Oc2cc3c(cc2CC1O)[C@@H]1Oc2cc(O)ccc2[C@@H]1CO3 (some centres undefined) [RAUTANDIOL A],> 5,> 5
COc1cc(OC)c(-c2coc3cc4occc4cc3c2=O)cc1OC [ISOELLIPTOL],1.6,0.8
c1cc2cc3c(cc2o1)OC[C@H]1c2cc4c(cc2O[C@@H]31)OCO4 [NEODULIN],> 5,> 5
